In patent US20090105218A1, “CRTH2 Receptor Ligands For Therapeutic Use” (7TM PHARMA A/S, priority 2004, published 2009):

Target: T1, human CRTH2 receptor (Homo sapiens, UniProt Q9Y5Y4, V204A)
T1 construct: expressed in transfected cells; host or cells: COS-7 (transient transfection)
T1 sequence (Q9Y5Y4 1-395 V204A): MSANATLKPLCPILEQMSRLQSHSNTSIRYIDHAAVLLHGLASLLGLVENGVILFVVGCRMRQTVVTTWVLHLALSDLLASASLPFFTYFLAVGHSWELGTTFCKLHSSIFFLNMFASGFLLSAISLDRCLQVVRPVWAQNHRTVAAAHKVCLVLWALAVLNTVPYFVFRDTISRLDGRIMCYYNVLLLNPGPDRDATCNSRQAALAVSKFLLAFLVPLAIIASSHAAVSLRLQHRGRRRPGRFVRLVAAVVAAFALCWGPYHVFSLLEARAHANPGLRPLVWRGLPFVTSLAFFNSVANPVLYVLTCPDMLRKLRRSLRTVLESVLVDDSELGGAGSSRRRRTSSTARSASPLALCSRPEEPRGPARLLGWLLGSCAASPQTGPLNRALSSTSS
Assay: CRTH2 receptor binding assay ([3H]PGD2 competition on whole transfected cells)
Settings: competition binding with 0.1 nM [3H]PGD2, whole cells expressing CRTH2, 3 h at 4° C.
From the text: Generation/origin of the cDNA Constructs. The coding sequence of the human CRTH2 receptor (genbank accession no NM_004778) was amplified by PCR from a human hippocampus cDNA library and inserted into the pcDNA3.1(+) expression vector (invitrogen) via 5′ HindIII and 3′ EcoRI. The sequence identity of the construct was verified by restriction endonuclease digests and sequencing in both directions on an ABI Prism (Applied Biosystems, Foster City, Calif.).
Cell Culture and Transfection. COS-7 cells were grown in Dulbecco's modified Eagle's medium (DMEM) 1885 supplemented with 10% fetal bovine serum, 100 units/ml penicillin, […] streptomycin, and kept at 37° C. in a 10% CO2 atmosphere. HEK293 cells were maintained in Minimum Essential medium (MEM) supplemented with 10% (v/v) heat inactivated fetal calf serum (HIFCS), 2 mM Glutamax™-I, 1% non essential amino acids (NEAA), 1% sodium pyruvate and 10 μg/ml gentamicin. For binding experiments, COS7 cells were transiently transfected with the CRTH2 receptor using a calcium phosphate-DNA coprecipitation method with the addition of chloroquine (as described by Holst B, Hastrup H, Raffetseder U, Martini L, Schwartz T W. J Biol. Chem. 2001 Jun. 8; 276(23):19793-9.)
Binding assay. 24 h after transfection COS-7 cells were seeded into 96 well plates at a density of 30.000 cells/well. Competition binding experiments on whole cells were then performed about 18-24 h later using 0.1 nM [^3H]PGD2 (NEN, 172 Ci/mmol) in a binding buffer consisting of HBSS (GIBCO) and 10 mM HEPES. Competing ligands were diluted in DMSO which was kept constant at 1% (v/v) of the final incubation volume. Total and nonspecific binding were determined in the absence and presence of 10 μM PGD2. Binding reactions were routinely conducted for 3 h at 4° C. and terminated by 2 washes (100 μl each) with ice cold binding buffer. Radioactivity was determined by liquid scintillation counting in a TOPCOUNTER (Packard) following over night incubation in Microscint 20. Stable HEK293 cells were seeded at a density of 30.000 cells/well 18-24 h prior to the binding assay which was performed essentially as described for COS7 cells above. Determinations were made in duplicates.
Curve analysis was performed with the GraphPadPrism software 3.0 (Graphpad Prism Inc., San Diego, USA) and IC50 values were calculated as a measure of the antagonistic potencies.

Structure (SMILES) | IC50 [nM]
O=C(COc1ccc(Cl)cc1)Nc1cccc(C(=O)Nc2ccccc2C(=O)O)c1 [B1, 2-{3-[2-(4-Chlorophenoxy)acetylamino]benzoylamino}benzoic acid] | < 500
O=C(/C=C/c1ccc(OC(F)(F)F)cc1)Nc1cccc(C(=O)Nc2ccccc2C(=O)O)c1 [B2, 2-{3-[(E)-3-(4-Trifluoromethoxyphenyl)acryloylamino]benzoylamino}benzoic acid] | < 500
O=C(COc1ccc(Cl)cc1Cl)Nc1cccc(C(=O)Nc2ccccc2C(=O)O)c1 [B3, 2-{3-[2-(2,4-Dichlorophenoxy)acetylamino]benzoylamino}-benzoic acid] | < 500
O=C(CCc1ccccc1)Nc1cccc(C(=O)Nc2ccccc2C(=O)O)c1 [B4, 2-[3-(3-Phenylpropionylamino)benzoylamino]benzoic acid] | 500 to 5000
Cc1ccc(S(=O)(=O)Nc2cccc(C(=O)Nc3ccccc3C(=O)O)c2)cc1 [B5, 2-[3-(Toluene-4-sulfonylamino)benzoylamino]benzoic acid] | 500 to 5000
C/C(=C\c1ccccc1)C(=O)Nc1cccc(C(=O)Nc2ccccc2C(=O)O)c1 [B6, 2-[3-((E)-2-Methyl-3-phenylacryloylamino)benzoylamino]benzoic acid] | 500 to 5000
O=C(Nc1ccccc1C(=O)O)c1cccc(NS(=O)(=O)c2ccc(F)cc2)c1 [B7, 2-[3-(4-Fluoro-benzenesulfonylamino)benzoylamino]benzoic acid] | 500 to 5000
O=C(Nc1ccc(OC(F)(F)F)cc1)Nc1cccc(C(=O)Nc2ccccc2C(=O)O)c1 [B8, 2-{3-[3-(4-Trifluoromethoxyphenyl)ureido]benzoylamino}benzoic acid] | 500 to 5000
COc1ccc(C(=O)Nc2cccc(C(=O)Nc3ccccc3C(=O)O)c2)cc1OC [B9, 2-[3-(3,4-Dimethoxybenzoylamino)benzoylamino]benzoic acid] | 500 to 5000
O=C(COCc1ccccc1)Nc1cccc(C(=O)Nc2ccccc2C(=O)O)c1 [B10, 2-[3-(2-Benzyloxyacetylamino)benzoylamino]benzoic acid] | 500 to 5000
COc1ccc(C(=O)Nc2cccc(C(=O)Nc3ccccc3C(=O)O)c2)cc1 [B11, 2-[3-(4-Methoxybenzoylamino)benzoylamino]benzoic acid] | 500 to 5000
O=C(COc1ccc(Cl)cc1)Nc1cc(C(=O)Nc2ccc(I)cc2C(=O)O)ccc1Cl [B12, 2-{4-Chloro-3-[2-(4-chloro-phenoxy)acetylamino]benzoylamino}-5-iodobenzoic acid] | 500 to 5000
O=C(Nc1ccc(Br)cc1C(=O)O)c1cccc(S(=O)(=O)Nc2ccc(Cl)nc2)c1 [B13, 5-Bromo-2-[3-(6-chloropyridin-3-ylsulfamoyl)benzoylamino]benzoic acid] | 500 to 5000
O=C(Nc1ccc(Br)cc1C(=O)O)c1cccc(S(=O)(=O)Nc2ccc(OC(F)(F)F)cc2)c1 [B14, 5-Bromo-2-[3-(4-trifluoromethoxyphenylsulfamoyl)benzoylamino]benzoic acid] | 500 to 5000
O=C(Nc1ccc(Br)cc1C(=O)O)c1cccc(S(=O)(=O)Nc2ccc(Br)cc2)c1 [B15, 5-Bromo-2-[3-(4-bromophenylsulfamoyl)benzoylamino]benzoic acid] | < 500
O=C(Nc1ccc(Br)cc1C(=O)O)c1cccc(S(=O)(=O)Nc2cccc(Oc3ccccc3)c2)c1 [B16, 5-Bromo-2-[3-(3-phenoxyphenylsulfamoyl)benzoylamino]benzoic acid] | < 500
O=C(Nc1ccc(Br)cc1C(=O)O)c1cccc(S(=O)(=O)Nc2ccc(I)cc2)c1 [B17, 5-Bromo-2-[3-(4-iodophenylsulfamoyl)benzoylamino]benzoic acid] | < 500
O=C(Nc1ccccc1C(=O)O)c1ccc(Br)c(S(=O)(=O)Nc2ccc(Cl)nc2)c1 [B18, 2-[4-Bromo-3-(6-chloropyridin-3-ylsulfamoyl)benzoylamino]benzoic acid] | 500 to 5000
O=C(Nc1ccccc1C(=O)O)c1ccc(Br)c(S(=O)(=O)Nc2ccc(OC(F)(F)F)cc2)c1 [B19, 2-[4-Bromo-3-(4-trifluoromethoxyphenylsulfamoyl)benzoylamino]benzoic acid] | < 500
Cc1c(S(=O)(=O)Nc2ccc(OC(F)(F)F)cc2)csc1C(=O)Nc1ccccc1C(=O)O [B20, 2-[3-Methyl-4-(4-trifluoromethoxyphenylsulfamoyl)thiophene-2-carbonylamino]benzoic acid] | < 500
O=C(Nc1ccccc1C(=O)O)c1ccc(Br)c(S(=O)(=O)Nc2cccc(Oc3ccccc3)c2)c1 [B21, 2-[4-Bromo-3-(3-phenoxyphenylsulfamoyl)benzoylamino]benzoic acid] | < 500

Structure (SMILES) | IC50 [nM]
Cc1c(S(=O)(=O)Nc2cccc(Oc3ccccc3)c2)csc1C(=O)Nc1ccccc1C(=O)O [B22, 2-[3-Methyl-4-(3-phenoxyphenylsulfamoyl)thiophene-2-carbonylamino]-benzoic acid] | 500 to 5000
O=C(Nc1ccccc1C(=O)O)c1ccc(Br)c(S(=O)(=O)Nc2ccc(I)cc2)c1 [B23, 2-[4-Bromo-3-(4-iodophenylsulfamoyl)benzoylamino]benzoic acid] | < 500
Cc1c(S(=O)(=O)Nc2ccc(I)cc2)csc1C(=O)Nc1ccccc1C(=O)O [B24, 2-[4-(4-Iodophenylsulfamoyl)-3-methylthiophene-2-carbonylamino]benzoic acid] | < 500
Cc1c(S(=O)(=O)Nc2ccc(Br)cc2)csc1C(=O)Nc1ccccc1C(=O)O [B25, 2-[4-(4-Bromophenylsulfamoyl)-3-methylthiophene-2-carbonylamino]-benzoic acid] | < 500
O=C(Nc1ccc(Br)cc1C(=O)O)c1ccc(Br)c(S(=O)(=O)Nc2ccc(Br)cc2)c1 [B26, 5-Bromo-2-[4-bromo-3-(4-bromophenylsulfamoyl)benzoylamino]benzoic acid] | < 500
Cc1c(S(=O)(=O)Nc2ccc(Br)cc2)csc1C(=O)Nc1ccc(Br)cc1C(=O)O [B27, 5-Bromo-2-[4-(4-bromophenylsulfamoyl)-3-methylthiophene-2-carbonylamino]benzoic acid] | < 500
O=C(Nc1ccc(Br)cc1C(=O)O)c1cccc(S(=O)(=O)Nc2ccc(Cl)cc2)c1 [B28, 5-Bromo-2-[3-(4-chlorophenylsulfamoyl)benzoylamino]benzoic acid] | < 500
O=C(Nc1ccc(Br)cc1C(=O)O)c1cccc(S(=O)(=O)Nc2ccc(F)cc2)c1 [B29, 5-Bromo-2-[3-(4-fluorophenylsulfamoyl)benzoylamino]benzoic acid] | < 500
O=C(Nc1ccc(Cl)cc1C(=O)O)c1cccc(S(=O)(=O)Nc2ccc(Cl)cc2)c1 [B30, 5-Chloro-2-[3-(4-chlorophenylsulfamoyl)benzoylamino]benzoic acid] | < 500
O=C(Nc1ccc(Cl)cc1C(=O)O)c1cccc(S(=O)(=O)Nc2ccc(F)cc2)c1 [B31, 5-Chloro-2-[3-(4-fluorophenylsulfamoyl)benzoylamino]benzoic acid] | < 500
Cc1ccc(OCC(=O)Nc2cccc(C(=O)Nc3ccccc3C(=O)O)c2)cc1C [B32] | < 500
O=C(Nc1ccccc1C(=O)O)c1cccc(NC(=O)c2cccs2)c1 [B33] | 500 to 5000
COc1cc(C(=O)Nc2cccc(C(=O)Nc3ccccc3C(=O)O)c2)cc(OC)c1OC [B34] | 500 to 5000
O=C(Nc1ccccc1C(=O)O)c1cccc(NC(=O)c2ccco2)c1 [B35] | > 5000
O=C(Nc1ccccc1C(=O)O)c1cccc(NC(=O)C(c2ccccc2)c2ccccc2)c1 [B36] | < 500
O=C(Cc1ccccc1)Nc1cccc(C(=O)Nc2ccccc2C(=O)O)c1 [B37] | 500 to 5000
COc1cccc(OC)c1C(=O)Nc1cccc(C(=O)Nc2ccccc2C(=O)O)c1 [B38] | 500 to 5000
COc1ccc(OCC(=O)Nc2cccc(C(=O)Nc3ccccc3C(=O)O)c2)cc1 [B39] | 500 to 5000
CCCOc1ccc(C(=O)Nc2cccc(C(=O)Nc3ccccc3C(=O)O)c2)cc1 [B40] | < 500
CCCOc1cccc(C(=O)Nc2cccc(C(=O)Nc3ccccc3C(=O)O)c2)c1 [B41] | < 500
